Measured values: patent US11505556B2, “Halogenated derivatives of morphinans and uses thereof” (Xalud Therapeutics, Inc., priority 2017, dated 2022)
Several values for one entry are separate records, joined by “and”; a condition that tells them apart may be missing. Equal entries are not always repeated. Where two headings read alike, the source gives them in different places.

Tests used:
[1] = system: off-target screening panel; experiment: Off-target inhibition screening (whole panel); conditions: 10 μM test concentration; hit = inhibition at or above the 50% level
Source text: (§1) In addition to the animal studies presented above in Examples 1-9, the results of in vitro testing of several of the compounds (i.e., XT-203, XT-204, and XT-206 through XT-217) are shown in Table 5 and Table 6. […]. Nine additional compounds had two or fewer off-target hits in the screening. […] These compounds spanned all of the tested N-modification classes. […]. Thus, the medicinal chemistry approach taken in this series of fluorinated compounds can yield low off-target activity and longer metabolic lifetime while preserving TLR4 antagonism. It is appreciated that further development of compounds in this class, using techniques known to those skilled in the art, may yield additional compounds with desirable pharmacologic and toxicologic characteristics.

in vitro [2] = conditions: mouse, hepatocytes
[3] = target: Protein tyrosine kinase LCK (Homo sapiens, UniProt P06239); experiment: Off-target screening; assay type: biochemical
Source text: as §1

iNOS = iNOS (Homo sapiens, UniProt P35228); experiment: iNOS enzyme inhibition; assay type: biochemical
in vitro [4] = conditions: dog, cultured hepatocytes
hERG = hERG (Homo sapiens, UniProt Q12809); experiment: hERG inhibition
in vitro [5] = conditions: monkey, cultured hepatocytes
[6] = system: TLR4 (LPS-stimulated NO production, BV-2 mouse microglia cell line); experiment: NO assay: inhibition of LPS-induced NO production in BV-2 microglia (iNOS cellular); assay type: cell-based; conditions: Mus musculus
Source text: NO assay: Microglia are the resident cells of the innate immune system in the central nervous system, and TLR4 is primarily expressed by microglia rather than astrocytes or neurons in the CNS. Given this expression profile, the BV-2 mouse microglia cell line was used as the model system of microglia, as these cells recapitulate many of the responses of primary microglia with high fidelity. TLR4 activation induces the downstream production of the inflammatory factor NO, which contributes to the development of neuropathic pain and drug addiction. BV-2 murine microglia were grown in supplemented DMEM (including 10% FBS, 50 unit mL^−1 penicillin, 50 μg·mL^−1 streptomycin). BV-2 cells were detached from the flask by trypsin digestion when ˜80% confluence was reached. Cells were seeded at a density of 4×10^4 cells per well in 96-well plates. After overnight incubation, media was aspirated and changed to DMEM media without FBS. Cells were then treated with LPS (200 ng/ml) and different concentrations of the testing compounds. After 24 h treatment, 100 μL of supernatant media was removed after cells were treated for 24 h and added to flat black 96-well microfluor plates (Thermo Scientific, MA, USA). Subsequently, 10 μL of 2, 3-diaminonaphthalene (0.05 mg·mL^−1 in 0.62 M HCl) was added to each well and incubated for 15 min. The reaction was quenched by addition of 5 μL of 3 M NaOH and the plate was read on a Beckman Coulter DTX880 reader (Fullerton, Calif., USA) with excitation at 360 nm and emission at 430 nm.
N chain NTX: This experimentation involved an in vitro assay where mouse BV2 cells were treated with LPS, which results in the release of nitric oxide (NO). Blockade of TLR4 activity results in reduced NO production. Therefore, IC50 values were determined for test compounds that antagonize TLR4 activity. A series of test compounds were prepared, with different N-alkyl chains replacing the cyclopropyl methyl found in naltrexone. Cell viability was also measured by a standard assay, e.g., measurement of the release of cytoplasm-resident enzymes in the tissue culture supernatant or media to detect cell loss/lysis/rupture. A dose-inhibition curve was generated by testing the TLR4 antagonist compound for the ability to block LPS-stimulated iNOs induction. In FIG. 7, the inhibition levels across a range of doses are graphed, along with a regression curve. The IC50 value—50% inhibition level—is also provided, graphed against the length of the alkyl chain. Note that with longer N-alkyl chain the IC50 was reduced, although cell viability became problematic.
FIGS. 8B to 8D show the results of the inhibition of NO production from LPS-stimulated BV2 cells using the assay described above.

Human hepatocytes = experiment: Hepatocyte elimination of parent compound; conditions: cultured hepatocytes
in vitro [7] = conditions: human, cultured hepatocytes
[8] = Hepatocyte elimination of parent compound, spread across species; assay type: in vitro ADME; conditions: mouse, rat, dog, monkey, human, hepatocytes; lowest to highest species value; read-out: range of hepatocyte elimination half-life values across species
Procedure: Hepatocyte Elimination: (+)-NTX, AK-17 and XT-203 were incubated with cultured hepatocytes from the species listed in FIG. 9 and Table 4, and samples of the culture supernatant were collected over time. Samples were concentrated by nitrogen drying followed by reconstitution with 40% methanol for LC/MS analysis The data points were analyzed using the WinNonLin pharmacokinetics software package, and a half-life was determined that describes the rate of parent elimination. […].
as §1

in vitro [9] = conditions: rat, cultured hepatocytes
Vasopressin V1A = Vasopressin V1A (Homo sapiens, UniProt P37288); experiment: Off-target screening; assay type: binding
Source text: as §1

[10] = target: Transporter, Norepinephrine (NET) (Homo sapiens, UniProt P23975); experiment: Off-target screening; assay type: binding
Source text: as §1

Progesterone, PR-B = Progesterone, PR-B (Homo sapiens, UniProt P06401); experiment: Off-target screening; assay type: binding
Source text: as §1

Opiate κ (OP2, KOP) = Opiate κ (OP2, KOP) (Homo sapiens, UniProt P41145); experiment: Off-target screening; assay type: binding
Source text: as §1

Cannabinoid CB1 = Cannabinoid CB1 (Homo sapiens, UniProt P21554); experiment: Off-target screening; assay type: binding
Source text: as §1

[11] = system: GABA A, chloride channel, TBOB; experiment: Off-target screening; assay type: binding
Source text: as §1

Transporter, Adenosine = experiment: Off-target screening; assay type: binding
Source text: as §1

Adenosine A2A = Adenosine A2A (Homo sapiens, UniProt P29274); experiment: Off-target screening; assay type: binding
Source text: as §1

[12] = target: Transporter, Dopamine (DAT) (Homo sapiens, UniProt Q01959); experiment: Off-target screening; assay type: binding
Source text: as §1

Tachykinin NK1 = Tachykinin NK1 (Homo sapiens, UniProt P25103); experiment: Off-target screening; assay type: binding
Source text: as §1

Sodium channel site 2 = experiment: Off-target screening; assay type: binding
Source text: as §1

Adrenergic α2B = Adrenergic α2B (Homo sapiens, UniProt P18089); experiment: Off-target screening; assay type: binding
Source text: as §1

Dopamine D2L = Dopamine D2L (Homo sapiens, UniProt P14416); experiment: Off-target screening; assay type: binding
Source text: as §1

Adrenergic α2A = target: T1, Adrenergic α2A (Homo sapiens, UniProt P08913); experiment: Off-target screening; assay type: binding; conditions: 10 μM
T1 sequence (P08913 1-465): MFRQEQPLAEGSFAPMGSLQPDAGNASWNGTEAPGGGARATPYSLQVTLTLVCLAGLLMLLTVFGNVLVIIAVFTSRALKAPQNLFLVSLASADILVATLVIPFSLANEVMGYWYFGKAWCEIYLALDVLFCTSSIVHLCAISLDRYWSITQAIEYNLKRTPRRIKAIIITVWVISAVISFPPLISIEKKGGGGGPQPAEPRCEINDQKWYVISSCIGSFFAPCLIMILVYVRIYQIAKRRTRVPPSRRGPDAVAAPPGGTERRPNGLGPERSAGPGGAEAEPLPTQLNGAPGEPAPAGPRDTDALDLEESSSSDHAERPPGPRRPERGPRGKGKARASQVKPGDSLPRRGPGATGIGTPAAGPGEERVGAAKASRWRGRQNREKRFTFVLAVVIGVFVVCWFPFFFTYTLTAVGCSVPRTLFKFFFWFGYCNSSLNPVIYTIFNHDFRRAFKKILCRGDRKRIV
Source text: as §1

Adrenergic α1B = experiment: Off-target screening; assay type: binding
Source text: as §1

[13] = system: Calcium channel L-Type, benzothiazepine; experiment: Off-target screening; assay type: binding
Source text: as §1

Adrenergic α1D = Adrenergic α1D (Homo sapiens, UniProt P25100); experiment: Off-target screening; assay type: binding
Source text: as §1

[14] = system: Calcium channel L-Type, phenylalkylamine; experiment: Off-target screening; assay type: binding
Source text: as §1

Opiate μ (OP3, MOP) = Opiate μ (OP3, MOP) (Homo sapiens, UniProt P35372); experiment: Off-target screening; assay type: binding
Source text: as §1

Histamine H2 = Histamine H2 (Homo sapiens, UniProt P25021); experiment: Off-target screening; assay type: binding
Source text: as §1

Dopamine D2S = Dopamine D2S (Homo sapiens, UniProt P14416); experiment: Off-target screening; assay type: binding
Source text: as §1

Adrenergic α1A = experiment: Off-target screening; assay type: binding
Source text: as §1

[15] = Microglia, Table 6, unit inferred, footnote: Indicator of TL4 antagonism
[16] = LPS (200 ng/ml), 24 h, BV-2 cells, Table 3

Chain of hERG (Q12809 whole entry): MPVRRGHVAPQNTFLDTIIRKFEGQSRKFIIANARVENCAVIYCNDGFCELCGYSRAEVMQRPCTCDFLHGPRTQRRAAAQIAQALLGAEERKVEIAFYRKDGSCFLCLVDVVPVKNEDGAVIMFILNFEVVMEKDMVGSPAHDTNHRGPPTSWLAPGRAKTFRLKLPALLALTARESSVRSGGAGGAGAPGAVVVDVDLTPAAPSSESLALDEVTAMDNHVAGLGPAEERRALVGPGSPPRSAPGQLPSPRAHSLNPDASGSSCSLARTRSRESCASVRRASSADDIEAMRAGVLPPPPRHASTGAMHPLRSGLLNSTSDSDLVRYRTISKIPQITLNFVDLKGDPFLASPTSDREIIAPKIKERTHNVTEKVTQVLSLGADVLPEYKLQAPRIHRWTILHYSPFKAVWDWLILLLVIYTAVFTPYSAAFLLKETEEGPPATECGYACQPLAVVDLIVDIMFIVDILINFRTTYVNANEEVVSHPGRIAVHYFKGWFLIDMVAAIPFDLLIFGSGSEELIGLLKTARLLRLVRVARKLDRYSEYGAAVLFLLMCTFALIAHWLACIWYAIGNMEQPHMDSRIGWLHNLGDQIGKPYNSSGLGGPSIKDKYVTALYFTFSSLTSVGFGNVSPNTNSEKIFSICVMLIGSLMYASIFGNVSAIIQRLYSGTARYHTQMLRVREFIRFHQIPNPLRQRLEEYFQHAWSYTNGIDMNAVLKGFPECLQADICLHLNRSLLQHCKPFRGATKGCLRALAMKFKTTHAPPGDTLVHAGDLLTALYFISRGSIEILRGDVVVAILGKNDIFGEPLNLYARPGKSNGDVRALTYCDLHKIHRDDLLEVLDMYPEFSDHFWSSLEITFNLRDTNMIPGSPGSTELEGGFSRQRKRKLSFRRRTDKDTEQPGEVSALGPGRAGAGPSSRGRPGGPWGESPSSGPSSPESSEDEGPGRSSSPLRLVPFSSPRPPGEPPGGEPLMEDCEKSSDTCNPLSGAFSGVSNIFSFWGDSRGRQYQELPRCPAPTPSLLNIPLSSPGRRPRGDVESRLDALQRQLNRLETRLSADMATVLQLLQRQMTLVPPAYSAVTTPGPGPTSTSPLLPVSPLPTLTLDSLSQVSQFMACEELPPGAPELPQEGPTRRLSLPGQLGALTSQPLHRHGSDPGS
Chain of Opiate κ (OP2, KOP) (P41145 whole entry): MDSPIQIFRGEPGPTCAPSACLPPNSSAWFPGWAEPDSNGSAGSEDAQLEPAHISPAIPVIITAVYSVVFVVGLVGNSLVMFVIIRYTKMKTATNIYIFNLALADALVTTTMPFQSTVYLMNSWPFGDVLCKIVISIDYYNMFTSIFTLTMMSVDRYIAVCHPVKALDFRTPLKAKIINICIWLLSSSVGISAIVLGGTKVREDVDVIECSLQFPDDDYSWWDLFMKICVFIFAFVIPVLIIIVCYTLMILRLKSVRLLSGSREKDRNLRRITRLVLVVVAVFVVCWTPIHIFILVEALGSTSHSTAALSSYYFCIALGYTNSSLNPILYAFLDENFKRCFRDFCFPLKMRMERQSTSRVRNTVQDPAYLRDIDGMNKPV
Chain of Transporter, Norepinephrine (NET) (P23975 whole entry): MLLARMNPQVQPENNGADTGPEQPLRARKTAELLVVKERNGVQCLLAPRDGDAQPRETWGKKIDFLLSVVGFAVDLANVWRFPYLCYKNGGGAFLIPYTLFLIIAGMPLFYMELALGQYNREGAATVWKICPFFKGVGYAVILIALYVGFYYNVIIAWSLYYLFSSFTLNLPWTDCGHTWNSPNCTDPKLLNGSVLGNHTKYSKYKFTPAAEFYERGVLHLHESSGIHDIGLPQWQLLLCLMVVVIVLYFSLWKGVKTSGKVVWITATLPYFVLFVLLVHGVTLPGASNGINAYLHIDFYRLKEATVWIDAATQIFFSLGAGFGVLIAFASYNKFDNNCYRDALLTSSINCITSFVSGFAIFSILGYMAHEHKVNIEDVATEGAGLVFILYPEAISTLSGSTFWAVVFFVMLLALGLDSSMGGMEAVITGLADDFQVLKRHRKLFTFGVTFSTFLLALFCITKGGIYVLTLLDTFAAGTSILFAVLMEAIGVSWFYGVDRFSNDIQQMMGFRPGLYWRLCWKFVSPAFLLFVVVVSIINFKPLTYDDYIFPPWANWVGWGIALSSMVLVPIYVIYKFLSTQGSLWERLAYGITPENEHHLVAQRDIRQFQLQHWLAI
Chain of iNOS (P35228 whole entry): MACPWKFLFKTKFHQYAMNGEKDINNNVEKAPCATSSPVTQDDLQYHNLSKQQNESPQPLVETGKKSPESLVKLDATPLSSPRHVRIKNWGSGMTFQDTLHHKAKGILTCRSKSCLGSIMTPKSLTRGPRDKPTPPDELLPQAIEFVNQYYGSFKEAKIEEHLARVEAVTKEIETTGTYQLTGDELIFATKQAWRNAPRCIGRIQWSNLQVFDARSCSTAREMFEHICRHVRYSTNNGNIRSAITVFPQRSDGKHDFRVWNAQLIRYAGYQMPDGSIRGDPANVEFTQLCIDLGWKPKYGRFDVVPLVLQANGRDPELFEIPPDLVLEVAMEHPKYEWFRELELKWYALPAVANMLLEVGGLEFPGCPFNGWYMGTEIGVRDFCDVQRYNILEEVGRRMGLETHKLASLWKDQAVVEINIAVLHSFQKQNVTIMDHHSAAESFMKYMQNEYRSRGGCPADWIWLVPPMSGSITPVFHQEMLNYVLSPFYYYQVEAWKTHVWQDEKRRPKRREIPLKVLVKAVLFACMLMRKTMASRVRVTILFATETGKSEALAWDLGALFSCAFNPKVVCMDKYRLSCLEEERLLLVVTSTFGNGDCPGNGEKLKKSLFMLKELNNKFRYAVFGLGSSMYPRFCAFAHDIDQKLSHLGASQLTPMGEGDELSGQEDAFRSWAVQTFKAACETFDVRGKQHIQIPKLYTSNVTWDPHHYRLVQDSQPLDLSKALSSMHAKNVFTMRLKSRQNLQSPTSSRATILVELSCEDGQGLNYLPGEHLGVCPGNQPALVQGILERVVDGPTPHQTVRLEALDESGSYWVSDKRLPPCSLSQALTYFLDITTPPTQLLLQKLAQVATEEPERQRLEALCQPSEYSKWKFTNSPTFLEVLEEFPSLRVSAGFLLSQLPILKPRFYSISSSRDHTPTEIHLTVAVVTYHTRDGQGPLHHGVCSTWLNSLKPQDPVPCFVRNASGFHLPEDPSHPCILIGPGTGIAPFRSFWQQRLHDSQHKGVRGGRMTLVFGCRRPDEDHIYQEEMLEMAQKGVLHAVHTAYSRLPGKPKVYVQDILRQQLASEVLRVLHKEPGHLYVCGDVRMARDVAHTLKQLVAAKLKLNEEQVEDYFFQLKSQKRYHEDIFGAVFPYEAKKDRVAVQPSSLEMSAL
Chain of Cannabinoid CB1 (P21554 whole entry): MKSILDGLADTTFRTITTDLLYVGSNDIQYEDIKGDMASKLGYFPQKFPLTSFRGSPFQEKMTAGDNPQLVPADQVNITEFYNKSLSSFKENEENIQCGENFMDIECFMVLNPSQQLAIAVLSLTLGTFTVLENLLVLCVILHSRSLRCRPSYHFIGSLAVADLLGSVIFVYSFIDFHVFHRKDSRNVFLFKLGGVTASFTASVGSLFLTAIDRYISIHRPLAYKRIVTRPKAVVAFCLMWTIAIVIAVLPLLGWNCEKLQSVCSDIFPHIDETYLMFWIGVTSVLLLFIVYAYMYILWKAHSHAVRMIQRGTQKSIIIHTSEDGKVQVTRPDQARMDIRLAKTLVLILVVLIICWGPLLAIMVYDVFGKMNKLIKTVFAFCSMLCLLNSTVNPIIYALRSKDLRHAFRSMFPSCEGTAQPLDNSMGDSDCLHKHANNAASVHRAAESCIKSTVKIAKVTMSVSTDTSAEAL
Chain of Transporter, Dopamine (DAT) (Q01959 whole entry, species assumed): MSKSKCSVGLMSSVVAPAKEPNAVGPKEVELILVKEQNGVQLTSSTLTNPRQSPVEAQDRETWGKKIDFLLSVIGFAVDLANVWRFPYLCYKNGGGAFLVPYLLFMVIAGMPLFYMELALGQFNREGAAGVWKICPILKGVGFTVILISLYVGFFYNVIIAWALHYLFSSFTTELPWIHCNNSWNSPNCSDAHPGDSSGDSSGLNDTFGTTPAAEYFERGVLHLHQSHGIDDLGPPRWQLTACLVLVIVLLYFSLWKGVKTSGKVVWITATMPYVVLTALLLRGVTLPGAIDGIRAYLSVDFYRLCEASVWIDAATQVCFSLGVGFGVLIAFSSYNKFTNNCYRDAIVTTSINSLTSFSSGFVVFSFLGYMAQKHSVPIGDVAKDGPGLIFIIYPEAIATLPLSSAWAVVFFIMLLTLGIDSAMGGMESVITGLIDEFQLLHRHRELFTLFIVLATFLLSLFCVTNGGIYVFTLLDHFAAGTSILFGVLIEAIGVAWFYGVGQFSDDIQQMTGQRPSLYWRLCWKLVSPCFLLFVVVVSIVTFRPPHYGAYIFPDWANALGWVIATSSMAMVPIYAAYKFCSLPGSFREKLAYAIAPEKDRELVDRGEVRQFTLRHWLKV
Chain of Histamine H2 (P25021 whole entry): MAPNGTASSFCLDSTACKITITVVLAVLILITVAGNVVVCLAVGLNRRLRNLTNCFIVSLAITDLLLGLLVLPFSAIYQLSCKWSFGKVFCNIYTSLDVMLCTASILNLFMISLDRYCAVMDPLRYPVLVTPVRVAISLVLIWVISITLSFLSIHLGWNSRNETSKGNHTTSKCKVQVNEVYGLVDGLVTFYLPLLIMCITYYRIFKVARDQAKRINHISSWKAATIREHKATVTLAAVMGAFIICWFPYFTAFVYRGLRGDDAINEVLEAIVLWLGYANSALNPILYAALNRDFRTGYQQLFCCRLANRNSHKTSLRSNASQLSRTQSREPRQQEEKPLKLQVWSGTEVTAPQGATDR

Row | Compound | half-life (in vitro [2]) | half-life (in vitro [4]) | IC50 (hERG) | half-life (in vitro [5]) | IC50 [6, 15] | IC50 [6, 16] | half-life (in vitro [7]) | half-life (in vitro [9]) | inhibition at 10 µM [10] | inhibition at 10 µM (Opiate κ (OP2, KOP)) | inhibition at 10 µM (Cannabinoid CB1) | other results
1 | COc1ccc2c3c1O[C@@H]1C(F)CCC4[C@H](C2)N(S(C)(=O)=O)CC[C@]341 (some centres unmarked) [XT-209] | 22.4 min | 89 min | > 10 µM | 39.4 min | > 10 µM | > 10 µM | 296 min | 15.3 min | – | – | – | off-target hits in the screening [1]: one off-target hit; inhibition at 10 µM [3]: 61%; IC50 (iNOS): > 10 µM; IC50 (iNOS; read-out: iNOS enzyme, Table 6, unit inferred): > 10 µM; parent duration in human hepatocytes relative to XT-203 (Human hepatocytes): longer parent duration than XT-203; half-life [8]: 15.3 to 296 min
2 | COc1ccc2c3c1O[C@@H]1C(F)CCC4[C@H](C2)N(C(=O)C(C)(C)c2ccccc2)CC[C@]341 (some centres unmarked) [XT-216] | 20.8 min | 17.1 min | > 10 µM | 10.6 min | > 10 µM | > 10 µM | 31.5 min | 11.3 min | 59% | 69% | 82% | inhibition at 10 µM (Vasopressin V1A): 69%; inhibition at 10 µM (Progesterone, PR-B): 50%; % Inhibition at 10 μM, GABA A, chloride channel, TBOB [11]: 54%; % Inhibition at 10 μM, Transporter, Adenosine (Transporter, Adenosine): 60%; inhibition at 10 µM (Adenosine A2A): 57%; inhibition at 10 µM [12]: 52%
3 | COc1ccc2c3c1O[C@@H]1C(F)CCC4[C@H](C2)N(C(C)Cc2ccccc2)CC[C@]341 (some centres unmarked) [XT-215] | 20.7 min | 19.6 min | – | 22.1 min | > 10 µM | > 10 µM | 65.6 min | 12.7 min | 61% | 79% | 57% | inhibition at 10 µM (Tachykinin NK1): 55%; % Inhibition at 10 μM, Sodium channel site 2 (Sodium channel site 2): 101%; inhibition at 10 µM (Adrenergic α2B): 105%; inhibition at 10 µM (Dopamine D2L): 65%; inhibition at 10 µM (Adrenergic α2A): 96%; % Inhibition at 10 μM, Adrenergic α1B (Adrenergic α1B): 99%; % Inhibition at 10 μM, Calcium channel L-Type, benzothiazepine [13]: 51% and 73%; inhibition at 10 µM (Adrenergic α1D): 92%; % Inhibition at 10 μM, Calcium channel L-Type phenylalkylamine [14]: 73% and 51%; inhibition at 10 µM (Opiate μ (OP3, MOP)): 79%; inhibition at 10 µM (Histamine H2): 82%; inhibition at 10 µM (Dopamine D2S): 81%; % Inhibition at 10 μM, Adrenergic α1A (Adrenergic α1A): 85% and 99%; IC50 (hERG; human): 10 µM; inhibition at 10 µM (hERG; human, read-out: hERG inhibition, percent): 51%
